Measurements published in PubChem BioAssay AID2060888 (Molecular Pharmacology Branch, DTP, NCI, 2025).

Tested on: 695427-040-R-J1-PDC complex spheroid viability
Assay: Anticancer human tumor 695427-040-R-J1-PDC patient-derived colon adenocarcinoma cell line growth inhibition [RAS]
Conditions: for viability, T/C: stronger effect = lower value
Procedure, shortened: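 Tumour cells grown as complex spheroids with HUVEC endothelial cells and mesenchymal stem cells, treated with RAS pathway inhibitor combinations. Each agent spans half-log steps from near clinical Cmax, or 10 microM where Cmax is unknown.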

[1] = curve of first compound, second compound 0.0316 µM
[2] = curve of first compound, second compound 0.1 µM
[3] = curve of first compound, second compound 0.316 µM
[4] = curve of first compound, second compound 1 µM
[5] = curve of first compound, second compound 3.16 µM
[6] = curve of first compound, second compound 10 µM
[7] = second compound 0.0316 µM, first compound 0.00316 µM
[8] = second compound 0.0316 µM, first compound 0.01 µM
[9] = second compound 0.0316 µM, first compound 0.0316 µM
[10] = second compound 0.0316 µM, first compound 0.1 µM
[11] = second compound 0.0316 µM, first compound 0.316 µM
[12] = second compound 0.0316 µM, first compound 1 µM
[13] = second compound 0.1 µM, first compound 0.00316 µM
[14] = second compound 0.1 µM, first compound 0.01 µM
[15] = second compound 0.1 µM, first compound 0.0316 µM
[16] = second compound 0.1 µM, first compound 0.1 µM
[17] = second compound 0.1 µM, first compound 0.316 µM
[18] = second compound 0.1 µM, first compound 1 µM
[19] = second compound 0.316 µM, first compound 0.00316 µM
[20] = second compound 0.316 µM, first compound 0.01 µM
[21] = second compound 0.316 µM, first compound 0.0316 µM
[22] = second compound 0.316 µM, first compound 0.1 µM
[23] = second compound 0.316 µM, first compound 0.316 µM
[24] = second compound 0.316 µM, first compound 1 µM
[25] = second compound 1 µM, first compound 0.00316 µM
[26] = second compound 1 µM, first compound 0.01 µM
[27] = second compound 1 µM, first compound 0.0316 µM
[28] = second compound 1 µM, first compound 0.1 µM
[29] = second compound 1 µM, first compound 0.316 µM
[30] = second compound 1 µM, first compound 1 µM
[31] = second compound 3.16 µM, first compound 0.00316 µM
[32] = second compound 3.16 µM, first compound 0.01 µM
[33] = second compound 3.16 µM, first compound 0.0316 µM
[34] = second compound 3.16 µM, first compound 0.1 µM
[35] = second compound 3.16 µM, first compound 0.316 µM
[36] = second compound 3.16 µM, first compound 1 µM
[37] = second compound 10 µM, first compound 0.00316 µM
[38] = second compound 10 µM, first compound 0.01 µM
[39] = second compound 10 µM, first compound 0.0316 µM
[40] = second compound 10 µM, first compound 0.1 µM
[41] = second compound 10 µM, first compound 0.316 µM
[42] = second compound 10 µM, first compound 1 µM
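Further: viability read after seven days of drug exposure.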
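Wherever viability, T/C is given: 100% = DMSO vehicle control viability.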

C=CC(=O)N1CCN(c2nc(OCC3CCCN3C)nc3c(F)c(-c4nc(N)cc(C)c4C(F)(F)F)c(Cl)cc23)C(C)C1 (configuration not stated) + C#Cc1c(F)ccc2cc(O)cc(-c3ncc4c(N5CC6CCC(C5)N6)nc(OCC56CCCN5CC(F)C6)nc4c3F)c12
IC50 [1]: > 1000 nM
IC50 [2]: > 1000 nM
IC50 [3]: > 1000 nM
IC50 [4]: > 1000 nM
IC50 [5]: 498 nM
IC50 [6]: < 3.16 nM
viability, T/C [7]: 88.4%
viability, T/C [8]: 104%
viability, T/C [9]: 96.7%
viability, T/C [10]: 95%
viability, T/C [11]: 98.5%
viability, T/C [12]: 92.9%
viability, T/C [13]: 98.4%
viability, T/C [14]: 89.5%
viability, T/C [15]: 98.5%
viability, T/C [16]: 85.5%
viability, T/C [17]: 94.7%
viability, T/C [18]: 83.3%
viability, T/C [19]: 91.6%
viability, T/C [20]: 88%
viability, T/C [21]: 95.5%
viability, T/C [22]: 83.1%
viability, T/C [23]: 89%
viability, T/C [24]: 67%
viability, T/C [25]: 76.2%
viability, T/C [26]: 78.4%
viability, T/C [27]: 67.2%
viability, T/C [28]: 67.3%
viability, T/C [29]: 60.4%
viability, T/C [30]: 58.4%
viability, T/C [31]: 56.3%
viability, T/C [32]: 53%
viability, T/C [33]: 62.9%
viability, T/C [34]: 58.7%
viability, T/C [35]: 52.6%
viability, T/C [36]: 41.5%
viability, T/C [37]: 39.6%
viability, T/C [38]: 39.8%
viability, T/C [39]: 37.8%
viability, T/C [40]: 45.8%
viability, T/C [41]: 38.6%
viability, T/C [42]: 42.8%

CC(=O)OC12COC1CC(O)C1(C)C(=O)C(O)C3=C(C)C(OC(=O)C(O)C(NC(=O)OC(C)(C)C)c4ccccc4)CC(O)(C(OC(=O)c4ccccc4)C21)C3(C)C (configuration not stated)
viability, T/C (compound 0.0316 µM): 71.6% [middle of 4 runs]
viability, T/C (compound 0.1 µM): 68.3% [middle of 4 runs]
viability, T/C (compound 0.316 µM): 72.2% [middle of 4 runs]
viability, T/C (compound 1 µM): 76.2% [middle of 4 runs]
viability, T/C (compound 10 µM): 90.3% [middle of 4 runs]
IC50 (curve of compound): > 10000 nM

O=C(c1ccc(F)c(F)c1Nc1ccc(I)cc1F)N1CC(O)([C@@H]2CCCCN2)C1 + C#Cc1c(F)ccc2cc(O)cc(-c3ncc4c(N5CC6CCC(C5)N6)nc(OCC56CCCN5CC(F)C6)nc4c3F)c12
IC50 [1]: 40.4 nM
IC50 [2]: 31.5 nM
IC50 [3]: 31.4 nM
IC50 [4]: 17.7 nM
IC50 [5]: 3.68 nM
IC50 [6]: < 3.16 nM
viability, T/C [7]: 93.3%
viability, T/C [8]: 77%
viability, T/C [9]: 55.7%
viability, T/C [10]: 30.5%
viability, T/C [11]: 15.2%
viability, T/C [12]: 2.92%
viability, T/C [13]: 92.1%
viability, T/C [14]: 65.7%
viability, T/C [15]: 53.8%
viability, T/C [16]: 30.9%
viability, T/C [17]: 15.7%
viability, T/C [18]: 2.78%
viability, T/C [19]: 82.9%
viability, T/C [20]: 65.5%
viability, T/C [21]: 52.6%
viability, T/C [22]: 29.9%
viability, T/C [23]: 17%
viability, T/C [24]: 4.73%
viability, T/C [25]: 59.1%
viability, T/C [26]: 53.4%
viability, T/C [27]: 47%
viability, T/C [28]: 23.4%
viability, T/C [29]: 12.8%
viability, T/C [30]: 3.39%
viability, T/C [31]: 52.2%
viability, T/C [32]: 38.5%
viability, T/C [33]: 23.7%
viability, T/C [34]: 19.6%
viability, T/C [35]: 8.05%
viability, T/C [36]: 2.3%
viability, T/C [37]: 30.1%
viability, T/C [38]: 32.8%
viability, T/C [39]: 22.5%
viability, T/C [40]: 11.1%
viability, T/C [41]: 2.72%
viability, T/C [42]: 1.31%

CC(=O)OC12COC1CC(O)C1(C)C(=O)C(O)C3=C(C)C(OC(=O)C(O)C(NC(=O)OC(C)(C)C)c4ccccc4)CC(O)(C(OC(=O)c4ccccc4)C21)C3(C)C (configuration not stated) + C#Cc1c(F)ccc2cc(O)cc(-c3ncc4c(N5CC6CCC(C5)N6)nc(OCC56CCCN5CC(F)C6)nc4c3F)c12
IC50 [1]: > 10000 nM
IC50 [2]: > 10000 nM
IC50 [3]: > 10000 nM
IC50 [4]: > 10000 nM
IC50 [5]: < 31.6 nM
IC50 [6]: < 31.6 nM
viability, T/C [9]: 67.3%
viability, T/C [10]: 67%
viability, T/C [11]: 69.9%
viability, T/C [12]: 80.3%
viability, T/C (second compound 0.0316 µM, first compound 3.16 µM): 85.8%
viability, T/C (second compound 0.0316 µM, first compound 10 µM): 90.5%
viability, T/C [15]: 66.9%
viability, T/C [16]: 70.5%
viability, T/C [17]: 66%
viability, T/C [18]: 80%
viability, T/C (second compound 0.1 µM, first compound 3.16 µM): 89.1%
viability, T/C (second compound 0.1 µM, first compound 10 µM): 87.7%
viability, T/C [21]: 70.7%
viability, T/C [22]: 68%
viability, T/C [23]: 64.8%
viability, T/C [24]: 72.6%
viability, T/C (second compound 0.316 µM, first compound 3.16 µM): 76.8%
viability, T/C (second compound 0.316 µM, first compound 10 µM): 81.8%
viability, T/C [27]: 59.5%
viability, T/C [28]: 59.1%
viability, T/C [29]: 59%
viability, T/C [30]: 58.8%
viability, T/C (second compound 1 µM, first compound 3.16 µM): 67.3%
viability, T/C (second compound 1 µM, first compound 10 µM): 61%
viability, T/C [33]: 47.6%
viability, T/C [34]: 44.2%
viability, T/C [35]: 42.4%
viability, T/C [36]: 50.4%
viability, T/C (second compound 3.16 µM, first compound 3.16 µM): 49.7%
viability, T/C (second compound 3.16 µM, first compound 10 µM): 45.3%
viability, T/C [39]: 32.3%
viability, T/C [40]: 30.4%
viability, T/C [41]: 25.2%
viability, T/C [42]: 32%
viability, T/C (second compound 10 µM, first compound 3.16 µM): 29.6%
viability, T/C (second compound 10 µM, first compound 10 µM): 30.1%
